Structures are written as SMILES. Read-outs that look alike come from different tables or passages of the source.

The target in the test is T1, recombinant human GST-Syk (Homo sapiens, UniProt P43405).
T1 construct: purchased Carna Biosciences 08-176
Kind of test: Homogeneous Time-Resolved Fluorescence (HTRF) assay for the recombinant human Syk enzyme. It is filed as biochemical. Conditions: ATP 25 μM, 10-dose titration. As to the method:
Syk inhibition may be determined using the following assay protocol:
Homogeneous Time-Resolved Fluorescence (HTRF) Assay for the Recombinant Human Syk Enzyme:
A recombinant GST-hSyk fusion protein was used to measure potency of compounds to inhibit human Syk activity. The recombinant human GST-Syk (Carna Biosciences #08-176) ([…]) was incubated with various concentrations of the inhibitor diluted in DMSO (0.1% final concentration) for 10 minutes at room temperature in 15 mM Tris-HCl (pH 7.5), 0.01% tween 20, 2 mM DTT in 384 well plate format. To initiate the reaction the biotinylated substrate peptide (250 nM final concentration) that contains the phosphorylation site for Syk was added with magnesium (5 mM final concentration) and ATP (25 μM final concentration). Final volume of the reaction was 10 μL. Phosphorylation of the peptide was allowed to proceed for 45 minutes at room temperature. To quench the reaction and detect the phosphorylated product, 2 nM of a Europium-anti-phosphotyrosine antibody (Perkin Elmer #AD0161) and 70 nM SA-APC (Perkin-Elmer #CR130-100) were added together in 15 mM Tris pH 7.5, 40 mM EDTA, 0.01% tween 20. Final volume of the quenching solution was 10 μL. The resulting HTRF signal was measured after 30 minutes on an EnVision (Perkin-Elmer) reader using a time-resolved fluorescence protocol. IC50 was determined following 10-dose titration (10 μM to 0.508 nM) and four parameter logistic curve fitting using the Merck Assay Data Analyzer. The rhSyk activity (IC50) is expressed as +++ (100 nM or less), ++ (between 100 and 1000 nM), + (between 1 and 10 μM).
In general terms: TR-FRET usually uses a lanthanide donor and a delayed reading to cut background.

For `Cc1cc(Nc2nccc(C(F)(F)F)n2)cc(-n2cnc([C@]3(O)CC[C@](C)(C(=O)O)CC3)c2)c1` [Example 20, trans-4-hydroxy-1-methyl-4-[1-(3-methyl-5-{[4-(trifluoromethyl)-pyrimidin-2-yl]amino)-phenyl)-1H-imidazol-4-yl]cyclohexanecarboxylic acid], for the setting “read-out: rhSYK Activity”, the IC50 is at most 100 nM.

As to `CCOC(=O)C1(C)CCC(O)(c2cn(-c3cc(C)cc(Nc4nccc(C(F)(F)F)n4)c3)cn2)CC1` (stereo not drawn) [Example 22, Ethyl trans-4-hydroxy-1-methyl-4-[1-(3-methyl-5-{[4-(trifluoromethyl)pyrimidin-2-yl]amino}phenyl)-1H-imidazol-4-yl]cyclohexanecarboxylate], for the setting “read-out: rhSYK Activity”, the IC50 was at most 100 nM.

`CCOC(=O)C(C)(C)[C@H]1CC[C@](O)(c2cn(-c3cc(C)cc(Nc4cc(C(F)(F)F)ccn4)n3)cn2)CC1` [Example 23, Ethyl 2-{cis-4-hydroxy-4-[1-(4-methyl-6-{[4-(trifluoromethyl)pyridin-2-yl]amino}pyridin-2-yl)-1H-imidazol-4-yl]cyclohexyl}-2-methylpropanoate]: where the note is “read-out: rhSYK Activity”, the IC50 was at most 100 nM.

Regarding `CCOC(=O)C(C)(C)C1CCC(O)(c2cn(-c3cc(C)cc(Nc4cc(C(F)(F)F)ccn4)n3)cn2)CC1` (stereo not drawn) [Example 24, Ethyl 2-{trans-4-hydroxy-4-[1-(4-methyl-6-{[4-(trifluoromethyl)-pyridin-2-yl]amino}-pyridin-2-yl)-1H-imidazol-4-yl]-cyclohexyl}-2-methylpropanoate], the IC50 (read-out: rhSYK Activity) fell in the range of 100 to 1000 nM.

Regarding `Cc1cc(Nc2cc(C(F)(F)F)ccn2)nc(-n2cnc([C@]3(O)CC[C@H](C(=O)O)CC3)c2)c1` [Example 26, trans-4-hydroxy-4-[1-(4-methyl-6-{[4-(trifluoromethyl)pyridin-2-yl]amino}pyridin-2-yl)-1H-imidazol-4-yl]cyclohexanecarboxylic acid], the IC50 (read-out: rhSYK Activity) was at most 100 nM.

In the case of `Cc1cc(Nc2cc(C(F)(F)F)ccn2)nc(-n2cnc([C@]3(O)CC[C@@H](C(=O)O)CC3)c2)c1` [Example 27, cis-4-hydroxy-4-[1-(4-methyl-6-{[4-(trifluoromethyl)pyridin-2-yl]amino}pyridin-2-yl)-1H-imidazol-4-yl]cyclohexanecarboxylic acid], the IC50 runs as follows: (read-out: rhSYK Activity) at most 100 nM; (read-out: rhSYK IC50) 0.757 nM.

For the compound `CCOC(=O)[C@H]1CC[C@@](O)(c2cn(-c3cc(C)cc(Nc4cc(C(F)(F)F)ccn4)n3)cn2)CC1` [Example 28, Ethyl trans-4-hydroxy-4-[1-(4-methyl-6-{[4-(trifluoromethyl)pyridin-2-yl]amino}pyridin-2-yl)-1H-imidazol-4-yl]cyclohexane-carboxylate], under “read-out: rhSYK Activity”, the IC50 is at most 100 nM.

As to `CCOC(=O)[C@H]1CC[C@](O)(c2cn(-c3cc(C)cc(Nc4cc(C(F)(F)F)ccn4)n3)cn2)CC1` [Example 29, Ethyl cis-4-hydroxy-4-[1-(4-methyl-6-{[4-(trifluoromethyl)pyridin-2-yl]amino}pyridin-2-yl)-1H-imidazol-4-yl]cyclohexane-carboxylate], the IC50 (read-out: rhSYK Activity) was at most 100 nM.

For the compound `Cc1cc(Nc2nccc(C(F)(F)F)n2)cc(-n2cnc([C@]3(O)CC[C@@H](C(=O)N4CCOCC4)CC3)c2)c1` [Example 30, cis-1-[1-(3-methyl-5-{[4-(trifluoromethyl)pyrimidin-2-yl]amino}phenyl)-1H-imidazol-4-yl]-4-(morpholin-4-ylcarbonyl)cyclohexanol], the IC50 (read-out: rhSYK Activity) is at most 100 nM.

As for `Cc1cc(Nc2nccc(C(F)(F)F)n2)cc(-n2cnc(C3(O)CCC(C(=O)N4CCCC4)CC3)c2)c1` (stereo not drawn) [Example 31, cis-1-[1-(3-methyl-5-{[4-(trifluoromethyl)pyrimidin-2-yl]amino}phenyl)-1H-imidazol-4-yl]-4-(pyrrolidin-1-ylcarbonyl)cyclohexanol], the IC50 (read-out: rhSYK Activity) was at most 100 nM.

Consider `Cc1cc(Nc2nccc(C(F)(F)F)n2)cc(-n2cnc([C@]3(O)CC[C@@H](C(=O)N(C)C)CC3)c2)c1` [Example 32, cis-4-hydroxy-N,N-dimethyl-4-[1-(3-methyl-5-{[4-(trifluoromethyl)-pyrimidin-2-yl]amino}-phenyl)-1H-imidazol-4-yl]cyclohexane-carboxamide], for which the IC50 (read-out: rhSYK Activity) was at most 100 nM.

On to `Cc1cc(Nc2nccc(C(F)(F)F)n2)cc(-n2cnc([C@]3(O)CC[C@H](C(N)=O)CC3)c2)c1` [Example 33, trans-4-hydroxy-4-[1-(3-methyl-5-{[4-(trifluoro-methyl)pyrimidin-2-yl]amino}phenyl)-1H-imidazol-4-yl]-cyclohexanecarboxamide], for which the IC50 (read-out: rhSYK Activity) is at most 100 nM.

As to `Cc1cc(Nc2nccc(C(F)(F)F)n2)cc(-n2cnc([C@]3(O)CC[C@@H](C(N)=O)CC3)c2)c1` [Example 34, cis-4-hydroxy-4-[1-(3-methyl-5-{[4-(trifluoromethyl)-pyrimidin-2-yl]amino}phenyl)-1H-imidazol-4-yl]-cyclohexanecarboxamide], under “read-out: rhSYK Activity”, the IC50 was at most 100 nM.

Turning to `Cc1cc(Nc2nccc(C(F)(F)F)n2)cc(-n2cnc(C3(O)CCC(C(=O)O)CC3)c2)c1` (stereo not drawn) [Example 35, trans-4-hydroxy-4-[1-(3-methyl-5-[[4-(trifluoromethyl)pyrimidin-2-yl]amino}phenyl)-1H-imidazol-4-yl]cyclohexanecarboxylic acid], the IC50 (read-out: rhSYK Activity) is at most 100 nM.

Regarding `CCOC(=O)C1CCC(O)(c2cn(-c3cc(C)cc(Nc4nccc(C(F)(F)F)n4)c3)cn2)CC1` (stereo not drawn) [Example 36, Ethyl trans-4-hydroxy-4-[1-(3-methyl-5-{[4-(trifluoromethyl)pyrimidin-2-yl]amino}phenyl)-1H-imidazol-4-yl]-cyclohexanecarboxylate], the IC50 (read-out: rhSYK Activity) was at most 100 nM.

`Cc1cc(Nc2nccc(C(F)(F)F)n2)cc(-n2cnc([C@]3(O)CC[C@@H](O)CC3)c2)c1` [Example 37, Cis-1-[1-(3-methyl-5-{[4-(trifluoromethyl)pyrimidin-2-yl]amino}phenyl)-1H-imidazol-4-yl]cyclohexane-1,4-diol]: the IC50 runs as follows: (read-out: rhSYK Activity) at most 100 nM; (read-out: rhSYK IC50) 3.7 nM.

Take `Cc1cc(Nc2nccc(C)n2)cc(-n2cnc([C@]3(O)CC[C@@H](O)CC3)c2)c1` [Example 38, Cis-1-(1-{3-methyl-5-[(4-methylpyrimidin-2-yl)amino]phenyl}-1H-imidazol-4-yl)cyclohexane-1,4-diol]: the IC50 (read-out: rhSYK Activity) was at most 100 nM.

On to `COc1ccnc(Nc2cc(C)cc(-n3cnc([C@]4(O)CC[C@@H](O)CC4)c3)c2)n1` [Example 39, cis-1-(1-{3-[(4-methoxypyrimidin-2-yl)amino]-5-methylphenyl}-1H-imidazol-4-yl)cyclohexane-1,4-diol], for which the IC50 (read-out: rhSYK Activity) was at most 100 nM.

`Cc1cc(Nc2nccc(C3CC3)n2)cc(-n2cnc([C@]3(O)CC[C@@H](O)CC3)c2)c1` [Example 40, cis-1-(1-{3-[(4-cyclopropylpyrimidin-2-yl)amino]-5-methylphenyl}-1H-imidazol-4-yl)cyclohexane-1,4-diol]: the IC50 (read-out: rhSYK Activity) was at most 100 nM.

In the case of `COc1ccnc(Nc2cc(C)cc(-n3cnc(C4(O)CCC(OC(=O)c5ccccc5)CC4)c3)c2)n1` (stereo not drawn) [Example 41, cis-4-hydroxy-4-(1-{3-[(4-methoxypyrimidin-2-yl)amino]-5-methylphenyl}-1H-imidazol-4-yl)cyclohexyl benzoate], the IC50 (read-out: rhSYK Activity) was at most 100 nM.

On to `Cc1cc(Nc2nccc(C3CC3)n2)cc(-n2cnc([C@]3(O)CC[C@@H](OC(=O)c4ccccc4)CC3)c2)c1` [Example 42, cis-4-(1-{3-[(4-cyclopropylpyrimidin-2-yl)amino]-5-methylphenyl}-1H-imidazol-4-yl)-4-hydroxycyclohexyl benzoate], for which the IC50 (read-out: rhSYK Activity) is at most 100 nM.

On to `Cc1cc(Nc2cc(C)c(F)cn2)nc(-n2cnc([C@]3(O)CC[C@@H](O)CC3)c2)c1` [Example 43, cis-1-(1-{6-[(5-fluoro-4-methylpyridin-2-yl)amino]-4-methylpyridin-2-yl}-1H-imidazol-4-yl)cyclohexane-1,4-diol], for which, for the setting “read-out: rhSYK Activity”, the IC50 is at most 100 nM.

For `Cc1cc(Nc2cc(C)c(Cl)cn2)nc(-n2cnc([C@]3(O)CC[C@@H](O)CC3)c2)c1` [Example 44, cis-1-(1-{6-[(5-chloro-4-methylpyridin-2-yl)amino]-4-methylpyridin-2-yl}-1H-imidazol-4-yl)cyclohexane-1,4-diol], for the setting “read-out: rhSYK Activity”, the IC50 was at most 100 nM.

For `Cc1cc(Nc2cc(C3CC3)ccn2)nc(-n2cnc([C@]3(O)CC[C@@H](O)CC3)c2)c1` [Example 45, cis-1-(1-{6-[(4-cyclopropylpyridin-2-yl)amino]-4-methylpyridin-2-yl}-1H-imidazol-4-yl)cyclohexane-1,4-diol], the IC50 by setting is: (read-out: rhSYK Activity) at most 100 nM; (read-out: rhSYK IC50) 1.38 nM.

On to `Cc1ccnc(Nc2cc(C)cc(-n3cnc([C@]4(O)CC[C@@H](O)CC4)c3)n2)c1` [Example 46, cis-1-(1-{4-methyl-6-[(4-methylpyridin-2-yl)amino]pyridin-2-yl}-1H-imidazol-4-yl)cyclohexane-1,4-diol], for which the IC50 (read-out: rhSYK Activity) is at most 100 nM.

In the case of `Cc1cc(Nc2cc(C(C)(C)C)ccn2)nc(-n2cnc([C@]3(O)CC[C@@H](O)CC3)c2)c1` [Example 47, cis-1-(1-{6-[(4-tert-butylpyridin-2-yl)amino]-4-methylpyridin-2-yl}-1H-imidazol-4-yl)cyclohexane-1,4-diol], the IC50 (read-out: rhSYK Activity) is at most 100 nM.
